Results published in ChEMBL document CHEMBL3132801, “Meridianin G and its analogs as antimalarial agents” (Medchemcomm, 2013).
≈ marks a conversion by molar mass, not a printed value. Calls of active or inactive are those of the source. The rule behind the calls is not given here.

What was measured:
[1] = tested on: Aspergillus fumigatus; assay: Antimicrobial activity against Aspergillus fumigatus by NCCLS method; type: functional, organism-based
[2] = tested on: Candida albicans; assay: Antimicrobial activity against Candida albicans by NCCLS method; type: functional, organism-based
[3] = tested on: Cryptococcus neoformans; assay: Antimicrobial activity against Cryptococcus neoformans by NCCLS method; type: functional, organism-based
[4] = tested on: Staphylococcus aureus; assay: Antimicrobial activity against methicillin-resistant Staphylococcus aureus by NCCLS method; type: functional, organism-based
[5] = tested on: Staphylococcus aureus; assay: Antimicrobial activity against Staphylococcus aureus by NCCLS method; type: functional, organism-based
[6] = tested on: Leishmania donovani; assay: Antileishmanial activity against Leishmania donovani promastigotes after 48 hrs by Alamar Blue assay; type: functional, organism-based
[7] = tested on: Plasmodium falciparum; assay: Antimicrobial activity against Plasmodium falciparum W2 after 72 hrs by LDH activity assay; type: functional, organism-based
[8] = tested on: Plasmodium falciparum; assay: Antimicrobial activity against Plasmodium falciparum D6 after 72 hrs by LDH activity assay; type: functional, organism-based
[9] = Selectivity index, ratio of IC50 for pig LLC-PK1 cells to IC50 for Plasmodium falciparum W2; type: toxicity, cell-based; conditions: read-out: Ratio IC50
[10] = Selectivity index, ratio of IC50 for african green monkey Vero cells to IC50 for Plasmodium falciparum W2; type: toxicity, cell-based; conditions: read-out: Ratio IC50
[11] = Selectivity index, ratio of IC50 for human HepG2 cells to IC50 for Plasmodium falciparum W2; type: toxicity, cell-based; conditions: read-out: Ratio IC50
[12] = Selectivity index, ratio of IC50 for pig LLC-PK1 cells to IC50 for Plasmodium falciparum D6; type: toxicity, cell-based; conditions: read-out: Ratio IC50
[13] = Selectivity index, ratio of IC50 for african green monkey Vero cells to IC50 for Plasmodium falciparum D6; type: toxicity, cell-based; conditions: read-out: Ratio IC50
[14] = Selectivity index, ratio of IC50 for human HepG2 cells to IC50 for Plasmodium falciparum D6; type: toxicity, cell-based; conditions: read-out: Ratio IC50
[15] = tested on: LLC-PK1; assay: Cytotoxicity against a pig LLC-PK1 cells after 48 hrs by Neutral Red assay; type: cell-based; conditions: Sus scrofa, LLC-PK1, 48 h
[16] = tested on: Vero; assay: Cytotoxicity against african green monkey Vero cells after 48 hrs by Neutral Red assay; type: cell-based; conditions: Chlorocebus sabaeus
[17] = tested on: HepG2; assay: Cytotoxicity against human HepG2 cells after 48 hrs by Neutral Red assay; type: cell-based; conditions: HepG2, 48 h
[18] = Leishmania donovani, 48 h, read-out: IC50
[19] = Plasmodium falciparum, W2, 72 h, read-out: IC50
[20] = Plasmodium falciparum, D6, 72 h, read-out: IC50
[21] = Staphylococcus aureus, read-out: IC50

| SMILES | IC90 [6] | IC50 [6, 18] | selectivity ratio [9] | selectivity ratio [10] | selectivity ratio [11] | selectivity ratio [12] | selectivity ratio [13] | selectivity ratio [14] | IC50 [15] | IC50 [16] | IC50 [17] | IC50 [7, 19] | IC50 [8, 20] | IC50 [6] | further results |
| --- | --- | --- | --- | --- | --- | --- | --- | --- | --- | --- | --- | --- | --- | --- | --- |
| Nc1nccc(-c2cn(CN3C(=O)c4ccccc4C3=O)c3ccc(Br)cc23)n1 | – | – | – | – | – | – | – | – | – | – | – | – | – | – | Activity [1]: inactive; Activity [2]: inactive; IC50 [3]: 26.9 µM; MBC [3]: inactive; MIC [3]: inactive; IC50 [4]: Not Active; MBC [4]: inactive; MIC [4]: inactive; IC50 [5]: Not Active; MBC [5]: inactive; MIC [5]: inactive; Activity [6]: inactive; Activity [7]: inactive; Activity [8]: inactive |
| C[C@@H]1[C@H](O)[C@@H](C)/C=C/C=C/C=C/C=C/C=C/C=C/C=C/[C@H](O[C@@H]2O[C@H](C)[C@@H](O)[C@H](N)[C@@H]2O)C[C@@H]2O[C@](O)(C[C@@H](O)C[C@@H](O)[C@H](O)CC[C@@H](O)C[C@@H](O)CC(=O)O[C@H]1C)C[C@H](O)[C@H]2C(=O)O [AMPHOTERICIN B] | – | – | – | – | – | – | – | – | – | – | – | – | – | – | MBC [3]: 1.35 µM (≈ 1.25 µg/mL); MIC [3]: 1.35 µM (≈ 1.25 µg/mL); IC90 ([6]; Leishmania donovani, 48 h): 0.35 µM |
| Nc1nccc(-c2cn(C(=O)N3CCOCC3)c3ccc(Br)cc23)n1 | – | – | – | – | – | – | – | – | – | – | – | – | – | – | Activity [6]: inactive; Activity [7]: inactive; Activity [8]: inactive |
| Cc1noc(C)c1Cn1cc(-c2ccnc(N)n2)c2cc(Br)ccc21 | inactive | 107 µM | > 4.3 | > 4.3 | > 4.3 | > 6.5 | > 6.5 | > 6.5 | > 63 µM | > 63 µM | > 63 µM | 14.6 µM | 9.62 µM | – | – |
| O=c1[nH]c(-c2c[nH]c3ccc(I)cc23)nc2ccccc12 | – | 9.17 µM | – | – | – | – | – | – | > 65 µM | > 65 µM | > 65 µM | – | – | – | IC90 ([6]; Leishmania donovani, 48 h): 14.2 µM; IC50 [7]: Not Active; IC50 [8]: Not Active |
| C[C@@H]1CC[C@H]2[C@@H](C)C(=O)O[C@@H]3O[C@@]4(C)CC[C@@H]1[C@]32OO4 [ARTEMISININ] | – | – | – | – | – | – | – | – | – | – | – | < 0.09 µM | < 0.09 µM | – | – |
| Nc1nccc(-c2cn(C(=O)c3ccccc3)c3ccccc23)n1 | inactive | – | > 17.4 | > 17.4 | > 17.4 | > 7 | > 7 | > 7 | > 80 µM | > 80 µM | > 80 µM | 4.58 µM | 11.4 µM | Not Active | – |
| Nc1nccc(-c2cn(Cc3c4ccccc4cc4ccccc34)c3ccc(Br)cc23)n1 | inactive | – | > 4.5 | > 4.5 | > 4.5 | > 4.7 | > 4.7 | > 4.7 | > 52 µM | > 52 µM | > 52 µM | 11.6 µM | 11.1 µM | Not Active | – |
| COc1cccc(C(=O)n2cc(-c3ccnc(N)n3)c3ccccc32)c1 | – | – | – | – | – | – | – | – | – | – | – | – | – | – | Activity [6]: inactive; Activity [7]: inactive; Activity [8]: inactive |
| N=C(N)c1ccc(OCCCCCOc2ccc(C(=N)N)cc2)cc1 [PENTAMIDINE] | – | – | – | – | – | – | – | – | – | – | – | – | – | – | IC90 ([6]; Leishmania donovani, 48 h): 6.21 µM |
| CN1CCN(C(=O)n2cc(-c3ccnc(N)n3)c3ccccc32)CC1 | inactive | – | > 5.1 | > 5.1 | > 5.1 | > 7.7 | > 7.7 | > 7.7 | > 74 µM | > 74 µM | > 74 µM | 14.5 µM | 9.63 µM | Not Active | – |
| O=C1NC(c2c[nH]c3ccc(Br)cc23)Nc2ccccc21 (stereo unspecified) | – | 79.9 µM | – | – | – | – | – | – | 53 µM | > 73 µM | 73 µM | – | – | – | Activity [1]: inactive; Activity [2]: inactive; IC50 [3]: 14.8 µM; MBC [3]: inactive; MIC [3]: inactive; MBC [4]: inactive; MIC [4]: inactive; IC50 [4, 21]: 20.9 µM; MBC [5]: inactive; MIC [5]: inactive; IC50 [5, 21]: 25.2 µM; IC50 [7]: Not Active; IC50 [8]: Not Active |
| COCCn1cc(-c2ccnc(N)n2)c2cc(Br)ccc21 | – | 23.6 µM | – | – | – | – | – | – | 43 µM | > 72 µM | > 72 µM | – | – | – | Activity [1]: inactive; Activity [2]: inactive; IC50 [3]: 27.4 µM; MBC [3]: 57.6 µM (≈ 20 µg/mL); MIC [3]: 57.6 µM (≈ 20 µg/mL); IC50 [4]: Not Active; MBC [4]: inactive; MIC [4]: inactive; IC50 [5]: Not Active; MBC [5]: inactive; MIC [5]: inactive; IC90 ([6]; Leishmania donovani, 48 h): 52.2 µM; IC50 [7]: Not Active; IC50 [8]: Not Active |
| CN1CCN(C(=O)n2cc(-c3ccnc(N)n3)c3cc(Br)ccc32)CC1 | – | 40.5 µM | – | – | – | – | – | – | > 60 µM | > 60 µM | > 60 µM | – | – | – | IC90 ([6]; Leishmania donovani, 48 h): 108 µM; IC50 [7]: Not Active; IC50 [8]: Not Active |
| O=C1NC(c2c[nH]c3ccccc23)Nc2ccccc21 (stereo unspecified) | – | – | – | – | – | – | – | – | – | – | – | – | – | – | Activity [6]: inactive; Activity [7]: inactive; Activity [8]: inactive |
| Cc1noc(C)c1Cn1cc(-c2ccnc(N)n2)c2ccccc21 | inactive | – | – | – | – | > 6.3 | > 6.3 | > 6.3 | > 78 µM | > 78 µM | > 78 µM | – | 12.4 µM | Not Active | IC50 [7]: Not Active |
| Nc1nccc(-c2c[nH]c3ccccc23)n1 | inactive | – | > 24.1 | > 26.8 | > 26.8 | > 11.1 | > 12.3 | > 12.3 | 107 µM | 119 µM | > 119 µM | 4.44 µM | 9.69 µM | Not Active | – |
| COc1cccc2c1C(=O)c1c(O)c3c(c(O)c1C2=O)C[C@@](O)(C(=O)CO)C[C@@H]3O[C@H]1C[C@H](N)[C@H](O)[C@H](C)O1 [DOXORUBICIN] | – | – | – | – | – | – | – | – | < 1 µM | 7 µM | 2 µM | – | – | – | – |
| Nc1nccc(-c2cn(Cc3c4ccccc4cc4ccccc34)c3ccccc23)n1 | – | 80 µM | > 5.7 | > 5.7 | > 5.7 | > 8.9 | > 8.9 | > 8.9 | > 63 µM | > 63 µM | > 63 µM | 11 µM | 7.06 µM | – | – |
| Nc1nccc(-c2cn(C(=O)N3CCOCC3)c3ccccc23)n1 | inactive | – | > 25.1 | > 25.1 | > 25.1 | > 19.3 | > 19.3 | > 19.3 | > 77 µM | > 77 µM | > 77 µM | 3.08 µM | 4.01 µM | Not Active | – |
